Results reported in patent US6737383B1, “Herbicidal oxadiazolidines” (priority 1999, dated 2004).

Key:
galium = test: Test E galium; format: in vivo, Galium aparine; conditions: Preemergence
kochia = test: Test E kochia; format: in vivo, Kochia scoparia; conditions: Postemergence
Method in brief: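 Greenhouse-grown plants are treated (postemergence: 1- to 4-leaf stage, sandy loam/potting mix 60:40), then evaluated visually versus untreated controls some 21 to 28 days later.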

cotton = test: Test C postemergence cotton; format: in vivo, Gossypium hirsutum; conditions: 0 to 100 scale, 0 no effect, 100 complete control
Procedure: (§1) Compounds evaluated in this test were formulated in a non-phytotoxic solvent mixture which included a surfactant and applied to plants that were grown for various periods of time before treatment (postemergence application). A mixture of sandy loam soil and greenhouse potting mix in a 60:40 ratio was used for the postemergence test.
(§2) Plantings of these crops and weed species were adjusted to produce plants of appropriate size for the postemergence test. All plant species were grown using normal greenhouse practices. Crop and weed species include arrowleaf sida (Sida rhombifolia), barnyardgrass (Echinochloa crus-galli), cocklebur (Xanthium strumarium), common ragweed (Ambrosia elatior), corn (Zea mays), cotton (Gossypium hirsutum), eastern black nightshade (Solanum ptycanthum), fall panicum (Panicum dichotomiflorum), field bindweed (Convolvulus arvensis), giant foxtail (Setaria faberii), hairy beggarticks (Bidens pilosa), ivyleaf morningglory (Ipomoea hederacea), johnsongrass (Sorghum halepense), ladysthumb smartweed (Polygonum persicaria), lambsquarters (Chenopodium album), large crabgrass (Digitaria sanguinalis), purple nutsedge (Cyperus rotundus), redroot pigweed (Amaranthus retroflexus), soybean (Glycine max), surinam grass (Brachiaria decumbens), velvetleaf (Abutilon theophrasti) and wild poinsettia (Euphorbia heterophylla).
(§3) Treated plants and untreated controls were maintained in a greenhouse for approximately 14, to 21 days, after which all treated plants were compared to untreated controls and visually evaluated. Plant response ratings, summarized in Table C, were based upon a 0 to 100 scale where 0 was no effect and 100 was complete control. A dash response (−) means no test result.

wild poinsettia = test: Test C postemergence wild poinsettia; format: in vivo, Euphorbia heterophylla; conditions: 0 to 100 scale, 0 no effect, 100 complete control
Procedure: as §1, §2, §3

tall mallow = test: Test D tall mallow; format: in vivo, Malva sylvestris; conditions: Postemergence, 0 to 100 scale
certain weeds = test: Test F overall statement on synergism with rimsulfuron (Colby's equation); format: in vivo; conditions: combinations with rimsulfuron, preemergence
Procedure: Abutilon theophrasti (ABUTH), Chenopodium album (CHEAL), Amaranthus rudis (AMATA), Setaria […]), Panicum dichotomiflorum (PANDI), and Digitaria sanguinalis (DIGSA) were grown from seed in pots of an artificial potting mixture in a greenhouse. Compounds of the present invention were applied at 70 and 105 g ai/ha preemergence. Rimsulfuron was applied at 8.8 and 17.5 g ai/ha. Mixtures of the compounds of the present invention and rimsulfuron were also applied. Following application, the plants were maintained by watering as needed. A fertilizer solution of Peter's 20-20-20 (10 pounds/5 gallons of water) plus Sprint 330, a Iron Chelate micronutrient, (113.5 grams/5 gallons of water) was injected into the water with an Anderson fertilizer injection system to provide approximately 219 ppm of nitrogen with each watering. Artificial lighting was used to supplement natural light to produce a 14 hour photoperiod and: an additional one hour light period was used between 1:00 am to 2:00 am for a night interruption. Greenhouse temperatures were targeted for 27° C. in the day and 21° C. at night. At 21 days after treatment, all plants were evaluated for injury as compared to control plants that were sprayed only with non-phytotoxic solvent. […] Colby's equation was used to calculate the expected additive herbicidal effect of the mixtures of Compound 21 and the mixture partners listed above. […]

Alexandergrass = test: Test D Alexandergrass; format: in vivo, Brachiaria plantaginea; conditions: Postemergence, 0 to 100 scale
purple nutsedge = test: Test D purple nutsedge; format: in vivo, Cyperus rotundus; conditions: Postemergence, 0 to 100 scale
common groundsel = test: Test D common groundsel; format: in vivo, Senecio vulgaris; conditions: Postemergence, 0 to 100 scale
Setaria faberii (SETFA) = test: Test F preemergence, alone and in mixture with rimsulfuron, SETFA; format: in vivo; conditions: 21 days after treatment, 0-100 scale
Procedure: Abutilon theophrasti (ABUTH), Chenopodium album (CHEAL), Amaranthus rudis (AMATA), Setaria faberii (SETFA), Panicum dichotomiflorum (PANDI), and Digitaria sanguinalis (DIGSA) were grown from seed in pots of an artificial potting mixture in a greenhouse. Compounds of the present invention were applied at 70 and 105 g ai/ha preemergence. Rimsulfuron was applied at 8.8 and 17.5 g ai/ha. Mixtures of the compounds of the present invention and rimsulfuron were also applied.
Following application, the plants were maintained by watering as needed. A fertilizer solution of Peter's 20-20-20 (10 pounds/5 gallons of water) plus Sprint 330, a Iron Chelate micronutrient, (113.5 grams/5 gallons of water) was injected into the water with an Anderson fertilizer injection system to provide approximately 219 ppm of nitrogen with each watering. Artificial lighting was used to supplement natural light to produce a 14 hour photoperiod and: an additional one hour light period was used between 1:00 am to 2:00 am for a night interruption. Greenhouse temperatures were targeted for 27° C. in the day and 21° C. at night. At 21 days after treatment, all plants were evaluated for injury as compared to control plants that were sprayed only with non-phytotoxic solvent.
Colby's equation was used to calculate the expected additive herbicidal effect of the mixtures of Compound 21 and the mixture partners listed above. […]

[1] = Rate 125 g/ha, 0 to 100 scale (0 no effect, 100 complete control)
[2] = Rate 500 g/ha, 0 to 100 scale where 0 is no effect and 100 is complete control
[3] = Rate 500 g/ha, 0 to 100 scale, 0 no effect, 100 complete control
[4] = Rate 16 g/ha, 0 no injury, 100 complete control
[5] = Rate 32 g/ha, 0 no injury, 100 complete control
[6] = Rate 64 g/ha, 0 no injury, 100 complete control
[7] = Rate 125 g/ha, 0 no injury, 100 complete control

## CC(C)N(C(=O)n1oc(=O)n(C(C)C)c1=O)c1ccc(Cl)cc1 [Compound 114]
galium; [1]
  Plant response rating, Galium: 100
galium; Rate 250 g/ha, 0 to 100 scale
  Plant response rating, Galium: 60
galium; [2]
  Plant response rating, Galium: 70
kochia; Rate 125 g/ha, 0 to 100 scale
  Plant response rating, Kochia: 20
kochia; Rate 250 g/ha, 0 to 100 scale (0 no effect, 100 complete control)
  Plant response rating, Kochia: 30
kochia; [3]
  Plant response rating, Kochia: 30

## CCn1c(=O)on(C(=O)N(c2ccccc2)C(C)C)c1=O [Compound 117]
cotton; Rate 140 g/ha
  Plant response rating Cotton: 5
cotton; Rate 280 g/ha
  Plant response rating Cotton: 10
cotton; Rate 560 g/ha
  Plant response rating Cotton: 30
cotton; Rate 1120 g/ha
  Plant response rating Cotton: 60
Wild poinsettia; Rate 140 g/ha
  Plant response rating Wild poinsettia: 0
Wild poinsettia; Rate 280 g/ha
  Plant response rating Wild poinsettia: 0
Wild poinsettia; Rate 560 g/ha
  Plant response rating Wild poinsettia: 0
Wild poinsettia; Rate 1120 g/ha
  Plant response rating Wild poinsettia: 0

## CC(C)N(C(=O)n1oc(=O)n(C(C)C)c1=O)c1ccc(F)cc1 [Compound 131]
Tall mallow; [4]
  Plant response rating, Tall Mallow: 0
Tall mallow; [5]
  Plant response rating, Tall Mallow: 30
Tall mallow; [6]
  Tall Mallow plant response rating: 40
Tall mallow; [7]
  Tall Mallow plant response rating: 90
Tall mallow; Rate 250 g/ha
  Plant response rating, Tall Mallow: 100
Certain weeds
  Weed control of combination with rimsulfuron compared with expectation from Colby's equation: better control of certain weeds than expected
Alexandergrass; [4]
  Plant response rating, Alexandergrass: 0
Alexandergrass; [5]
  Plant response rating, Alexandergrass: 50
Alexandergrass; [6]
  Plant response rating, Alexandergrass: 100
Alexandergrass; [7]
  Plant response rating, Alexandergrass: 100
Alexandergrass; Rate 250 g/ha
  Plant response rating, Alexandergrass: 100
Purple nutsedge; [4]
  Plant response rating, Purple nutsedge: 0
Purple nutsedge; [5]
  Plant response rating, Purple nutsedge: 0
Purple nutsedge; [6]
  Purple nutsedge plant response rating: 0
Purple nutsedge; [7]
  Purple nutsedge plant response rating: 30
Purple nutsedge; Rate 250 g/ha
  Plant response rating, Purple nutsedge: 100
Common groundsel; [4]
  Plant response rating, Com. groundsel: 90
Common groundsel; [5]
  Plant response rating, Com. groundsel: 100
Common groundsel; [6]
  Plant response rating, Com. groundsel: 100
Common groundsel; [7]
  Plant response rating, Com. groundsel: 100
Common groundsel; Rate 250 g/ha
  Plant response rating, Com. groundsel: 100
cotton; Rate 140 g/ha
  Plant response rating Cotton: 10
cotton; Rate 280 g/ha
  Plant response rating Cotton: 10
cotton; Rate 560 g/ha
  Plant response rating Cotton: 40
cotton; Rate 1120 g/ha
  Plant response rating Cotton: 65
Wild poinsettia; Rate 140 g/ha
  Plant response rating Wild poinsettia: 0
Wild poinsettia; Rate 280 g/ha
  Plant response rating Wild poinsettia: 10
Wild poinsettia; Rate 560 g/ha
  Plant response rating Wild poinsettia: 30
Wild poinsettia; Rate 1120 g/ha
  Plant response rating Wild poinsettia: 80
galium; [1]
  Plant response rating, Galium: 60
galium; Rate 250 g/ha
  Galium plant response rating (0 to 100 scale): 50
galium; [2]
  Plant response rating, Galium: 100
kochia; Rate 62 g/ha, 0 to 100 scale
  Plant response rating, Kochia: 45
kochia; Rate 125 g/ha, 0 to 100 scale
  Plant response rating, Kochia: 0
kochia; [3]
  Plant response rating, Kochia: 0
kochia; Rate 250 g/ha, 0 to 100 scale where 0 is no effect and 100 is complete control
  Kochia plant response rating: 0
Setaria faberii (SETFA); Alone: Cmpd. rate 70, Rimsulfuron 0
  SETFA Observed: 35%
Setaria faberii (SETFA); Alone: Cmpd. rate 105, Rimsulfuron 0
  SETFA Observed: 65%
